Values quoted from earlier work, collected in patent publication US20100093849A1, “OXALIPLATIN PHARMACEUTICAL COMPOSITION WITH ALCOHOLIC SUGAR-BASED BUFFER” (priority 2007, published 2010).
Values joined by “and” are separate entries in the source; they are usually repeats but may differ in a detail not shown here. Equal entries are not always repeated.

How the values were obtained:
[1] = Merck Index

second dissociation constant, pKa [1] | Compound | solubility in water (at 37° C.) | solubility in ether and ethanol (ether and ethanol) | highest concentrations of oxaliplatinum achieved (solvent of the same volumes of 1,2-propanediol and water (WO0115691))
4.28 | O=C(O)C(=O)O [Oxalic acid] |  |  | 
 | O=C1[O][Pt]2([NH][C@@H]3CCCC[C@H]3[NH]2)[O]C1=O [Oxaliplatinum, {trans-(1R,2R)-1,2-cyclohexane-diamine}-(oxalato)platinum(II) complex] | about 8 mg/ml | practically insoluble | 14.01 mg/mL and 14.33 mg/mL
